In article PMC2074382 (British Journal of Cancer, 1996):
Where “and” joins values, the source holds several entries; their conditions need not be identical. Equal entries are not always repeated. Structures can show the parent of a compound that is named as a salt.

Experiment: Pharmacokinetics (lactone form, HPLC, non-compartmental) in plasma and urine, days 1 and 4 of first course
Excerpt: British Journal of Cancer (1996) 73, 744-750 O (C? 1996 Stockton Press All rights reserved 0007-0920/96 $12.00 Phase I and pharmacological study of the new topoisomerase I inhibitor G1147211, using a daily x 5 intravenous administration CJH Gerrits', GJ Creemers', JHM Schellens', P Wissel2, AS Th Planting', R Kunka2, K Selinger2, M de Boer-Dennert', Y Marijnen3, M Harteveld' and J Verweijl 'Department of Medical Oncology, Rotterdam Cancer Institute, Rotterdam, The Netherlands; 2Glaxo Wellcome Inc, Department of Clinical Pharmacology, NC, USA; 3Glaxo Wellcome Inc, Department of Clinical Research, Zeist, The Netherlands. Summary Topoisomerase I inhibitors are interesting anti-cancer agents with a novel mechanism of action. […] In subsequent patient cohorts the dose was escalated from 0.3 to 1.5 mg m-2 day-'. Pharmacokinetics analysis was performed on days 1 and 4 of the first course using a validated high- performance liquid chromatographic assay and non-compartmental methods. […] Its further development was stopped because of unpredictable and severe myelosuppression, gastrointestinal toxicity and haemorrhagic cystitis. In the late 1980s two discoveries brought about a renewal of interest in CPT; firstly, topoisomerase I was identified as the single cellular target of CPT (Hsiang et al., 1985; Hsiang and Liu, 1988) and, secondly, an overexpression of topoisomerase I was found in various tumour cell lines but not in normal tissues (Giovanella et al., 1989; Hirabayaski et al., 1992; Potmesil et al., 1988). Topoisomerase I is a nuclear enzyme that resolves topological problems of the torsionally strained (supercoiled) DNA (Slichenmyer et al., 1993). This is achieved by forming a covalent adduct between topoisome- rase I and the DNA, termed the cleavable complex. This catalytic intermediate creates single-strand DNA breaks, allowing the DNA molecule to rotate around the intact DNA strand at the cleavage site, leading to a relaxation of the DNA molecule and in this way replication, transcription and other DNA functions can proceed. These enzyme- bridged breaks are then resealed by topoisomerase I. CPT stabilises the cleavable complexes, thereby preventing resealing of single-strand DNA breaks in the presence of the drug (Covey et al., 1989; D'Arpa and Liu, 1989; Eng et al., 1988). Cytotoxicity is specific to the S-phase of the cell cycle because the double-strand breaks that occur during this phase are more difficult to repair in the presence of the drug (Horwitz and Horwitz, 1973). […] Other eligibility criteria included: (1) age>, 18 years; (2) an Eastern Cooperative Oncology Group (ECOG) performance status <2; (3) a predicted life expectancy of at least 3 months; (4) no previous anti-cancer therapy for at least 3 weeks (6 weeks for previous nitro- soureas or mitomycin C); (5) adequate haemato- poietic (WBC) 3 x 109 -', ANC > 1.5 x 109 1-' and platelets 100 x 10 1- 1), hepatic (bilirubin within normal limits, AST, ALT and/or alkaline phosphatase < 2.0 x normal), and renal (serum creatinine < 130 imol 1-') functions. All patients gave written informed consent.

[1] = 0.3 mg m-2, day 1, individual patients 1-3 in order
[2] = 0.3 mg m-2, day 1, mean of dose level
[3] = 0.3 mg m-2, day 4, individual patients 1-3 in order
[4] = 0.3 mg m-2, day 4, mean of dose level
[5] = 0.6 mg m-2, day 1, individual patients 4-6 in order
[6] = 0.6 mg m-2, day 1, mean of dose level
[7] = 0.6 mg m-2, day 4, individual patients 4-6 in order
[8] = 0.6 mg m-2, day 4, mean of dose level
[9] = 1.2 mg m-2, day 1, individual patients 7-12 in order
[10] = 1.2 mg m-2, day 1, mean of dose level

With `CC[C@@]1(O)C(=O)OCc2c1cc1n(c2=O)Cc2c-1nc1cc3c(cc1c2CN1CCN(C)CC1)OCCO3` [GI147211, [7 - (methylpiperazinomethylene) - 10,11 - ethylene-dioxy-20(S)] camptothecin dihydrochloride] the AUCinf [1] was 4.93 ng·h/mL and 4.04 ng·h/mL and 4.77 ng·h/mL, the “Clearance, total plasma clearance” value [1] was 1014 ml min-1 m-2 and 1238 ml min-1 m-2 and 1048 ml min-1 m-2 and the Cmax [1] was 3.63 ng/mL and 4.27 ng/mL and 3.73 ng/mL. For the same compound, the MRT [1] was 2.89 h and 1.66 h and 3.33 h, the Vdss [1] was 161 l m-2 and 104 l m-2 and 194 l m-2 and the “t1/2, elimination half-life” value [1] was 2.96 h and 1.99 h and 2.63 h. The tmax [1] was 0.42 h, the “AUCinf, mean” value [2] was 4.58 ng·h/mL and the “Clearance, mean” value [2] was 1100 ml min-1 m-2. For the same compound, the “Cmax, mean” value [2] was 3.88 ng/mL, the “MRT, mean” value [2] was 2.63 h and the “Vdss, mean” value [2] was 153 l m-2. For the same compound, the “t1/2, mean” value [2] was 2.52 h, the “tmax, mean” value [2] was 0.42 h and the AUCinf [3] was 6.19 ng·h/mL and 6.79 ng·h/mL and 7.46 ng·h/mL. For the same compound, the “Clearance, total plasma clearance” value [3] was 808 ml min-1 m-2 and 736 ml min-1 m-2 and 670 ml min-1 m-2, the Cmax [3] was 4.73 ng/mL and 4.30 ng/mL and 5.11 ng/mL and the MRT [3] was 4.62 h and 4.73 h and 5.30 h. The Vdss [3] was 207 l m-2 and 199 l m-2 (2×), the “t1/2, elimination half-life” value [3] was 4.82 h and 2.34 h and 3.81 h and the tmax [3] was 0.25 h (2×) and 0.42 h. For the same compound, the “AUCinf, mean” value [4] was 6.81 ng·h/mL, the “Clearance, mean” value [4] was 738 ml min-1 m-2 and the “Cmax, mean” value [4] was 4.71 ng/mL. The “MRT, mean” value [4] was 4.88 h, the “Vdss, mean” value [4] was 202 l m-2 and the “t1/2, mean” value [4] was 3.65 h. The “tmax, mean” value [4] was 0.31 h, the AUCinf [5] was 10.10 ng·h/mL and 15.63 ng·h/mL and 14.00 ng·h/mL and the “Clearance, total plasma clearance” value [5] was 990 ml min-1 m-2 and 640 ml min-1 m-2 and 714 ml min-1 m-2. The Cmax [5] was 9.16 ng/mL and 9.41 ng/mL and 11.46 ng/mL, the MRT [5] was 4.01 h and 3.74 h and 3.52 h and the Vdss [5] was 223 l m-2 and 134 l m-2 and 140 l m-2. For the same compound, the “t1/2, elimination half-life” value [5] was 3.35 h and 2.81 h and 2.80 h, the tmax [5] was 0.42 h and the “AUCinf, mean” value [6] was 13.25 ng·h/mL. The “Clearance, mean” value [6] was 781 ml min-1 m-2, the “Cmax, mean” value [6] was 10.01 ng/mL and the “MRT, mean” value [6] was 3.76 h. For the same compound, the “Vdss, mean” value [6] was 166 l m-2, the “t1/2, mean” value [6] was 2.98 h and the “tmax, mean” value [6] was 0.42 h. For the same compound, the AUCinf [7] was 11.21 ng·h/mL and 15.10 ng·h/mL and 15.94 ng·h/mL, the “Clearance, total plasma clearance” value [7] was 892 ml min-1 m-2 and 662 ml min-1 m-2 and the Cmax [7] was 7.60 ng/mL and 8.13 ng/mL and 9.29 ng/mL. For the same compound, the MRT [7] was 4.89 h and 5.38 h and 6.35 h, the Vdss [7] was 246 l m-2 and 203 l m-2 and 224 l m-2 and the “t1/2, elimination half-life” value [7] was 3.42 h and 3.78 h and 4.15 h. For the same compound, the tmax [7] was 0.42 h (2×) and 0.25 h, the “AUCinf, mean” value [8] was 14.08 ng·h/mL and the “Clearance, mean” value [8] was 727 ml min-1 m-2. The “Cmax, mean” value [8] was 8.34 ng/mL, the “MRT, mean” value [8] was 5.54 h and the “Vdss, mean” value [8] was 224 l m-2. The “t1/2, mean” value [8] was 3.78 h, the “tmax, mean” value [8] was 0.36 h and the AUCinf [9] was 17.57 ng·h/mL and 24.95 ng·h/mL and 16.70 ng·h/mL and 15.05 ng·h/mL and 19.86 ng·h/mL and 19.42 ng·h/mL. For the same compound, the “Clearance, total plasma clearance” value [9] was 1138 ml min-1 m-2 and 802 ml min-1 m-2 and 1198 ml min-1 m-2 and 1329 ml min-1 m-2 and 1007 ml min-1 m-2 and 1030 ml min-1 m-2, the Cmax [9] was 17.33 ng/mL and 11.97 ng/mL and 15.99 ng/mL and 12.83 ng/mL and 14.11 ng/mL and 17.65 ng/mL and the MRT [9] was 3.01 h and 5.18 h and 2.94 h and 3.04 h and 3.98 h and 2.66 h. The Vdss [9] was 189 l m-2 and 237 l m-2 and 193 l m-2 and 223 l m-2 and 225 l m-2 and 149 l m-2, the “t1/2, elimination half-life” value [9] was 3.62 h and 4.04 h and 2.54 h and 2.40 h and 5.10 h and 2.97 h and the tmax [9] was 0.42 h (5×) and 0.25 h. For the same compound, the “AUCinf, mean” value [10] was 18.93 ng·h/mL and the “Clearance, mean” value [10] was 1084 ml min-1 m-2.
